The record followed here is article PMC3234597, “Two Panels of Steroid Receptor Luciferase Reporter Cell Lines for Compound Profiling” (Combinatorial Chemistry & High Throughput Screening, 2011).

SMILES strings stand for the structures. Where two headings read alike, the source gives them in different places.

Common to all, as to type: cell-based
One experiment deals with T1, human MR (full-length) (Homo sapiens, UniProt P08235).
T1 construct: expression vectors encoding full-length steroid receptors: pcDNA3-hAR, pcDNA3-hGR and pcDNA3-hMR; expressed in transfected cells; host or cells: U2OS
T1 sequence (P08235 1-984): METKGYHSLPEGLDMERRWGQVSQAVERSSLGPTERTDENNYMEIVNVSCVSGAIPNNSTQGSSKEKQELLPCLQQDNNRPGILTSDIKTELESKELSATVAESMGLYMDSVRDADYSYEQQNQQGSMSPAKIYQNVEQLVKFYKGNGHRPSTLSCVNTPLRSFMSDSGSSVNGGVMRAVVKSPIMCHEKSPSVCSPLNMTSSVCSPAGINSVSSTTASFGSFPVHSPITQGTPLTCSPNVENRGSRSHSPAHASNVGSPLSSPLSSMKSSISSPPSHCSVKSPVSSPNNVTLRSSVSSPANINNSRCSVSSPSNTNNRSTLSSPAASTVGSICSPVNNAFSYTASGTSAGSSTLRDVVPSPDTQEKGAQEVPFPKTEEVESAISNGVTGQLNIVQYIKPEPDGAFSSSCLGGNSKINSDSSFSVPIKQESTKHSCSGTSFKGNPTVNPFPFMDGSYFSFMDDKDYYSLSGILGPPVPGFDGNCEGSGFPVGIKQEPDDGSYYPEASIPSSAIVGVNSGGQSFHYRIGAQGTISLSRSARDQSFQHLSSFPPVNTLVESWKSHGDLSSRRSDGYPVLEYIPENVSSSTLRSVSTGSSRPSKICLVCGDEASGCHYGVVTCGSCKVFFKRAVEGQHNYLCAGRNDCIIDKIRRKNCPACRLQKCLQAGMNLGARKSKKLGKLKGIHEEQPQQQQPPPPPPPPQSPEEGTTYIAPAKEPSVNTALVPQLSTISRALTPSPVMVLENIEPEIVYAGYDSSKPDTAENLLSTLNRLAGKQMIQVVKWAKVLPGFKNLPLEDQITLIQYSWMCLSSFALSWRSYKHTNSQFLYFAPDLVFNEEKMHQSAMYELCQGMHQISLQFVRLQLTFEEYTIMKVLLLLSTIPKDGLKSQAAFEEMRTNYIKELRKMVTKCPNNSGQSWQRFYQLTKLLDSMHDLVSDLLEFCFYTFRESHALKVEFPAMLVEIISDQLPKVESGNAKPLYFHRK
The experiment is described as follows: U2OS-MR/MMTV luciferase reporter cell line (full-length receptor). The settings on record: for Log EC50: agonist mode, 20 h, log10 of molar EC50, mean ± SEM; for Log EC50 / Log IC50: MR/MMTV; for Log IC50: in the presence of 1 nM aldosterone, log10 of molar IC50, mean ± SEM. (In general: A reporter such as luciferase makes a cellular process visible.)

Experiment [1] has as its target T2, ERα^G420C-LBD fused to Gal4-DBD (Homo sapiens, UniProt P03372, G420C).
T2 construct: expressed in transfected cells; host or cells: U2OS
T2 sequence (P03372 311-547 G420C limits assumed): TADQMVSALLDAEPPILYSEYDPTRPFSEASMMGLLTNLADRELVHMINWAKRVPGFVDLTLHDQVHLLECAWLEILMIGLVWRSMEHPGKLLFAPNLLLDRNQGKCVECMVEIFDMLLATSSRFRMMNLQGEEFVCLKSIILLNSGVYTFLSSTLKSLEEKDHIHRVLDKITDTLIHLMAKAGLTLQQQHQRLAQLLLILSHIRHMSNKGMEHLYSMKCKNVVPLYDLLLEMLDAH
The experiment is described as follows: U2OS-ERα^G420C-LBD/9xGal4UAS luciferase reporter cell line.

The target in experiment [2] is T3, AR-LBD fused to Gal4-DBD (co-expressed with full-length AR) (Homo sapiens, UniProt P10275).
T3 construct: the following primers were used for the amplification of the LBD region; expressed in transfected cells; host or cells: U2OS
T3 sequence (P10275 669-900 limits assumed): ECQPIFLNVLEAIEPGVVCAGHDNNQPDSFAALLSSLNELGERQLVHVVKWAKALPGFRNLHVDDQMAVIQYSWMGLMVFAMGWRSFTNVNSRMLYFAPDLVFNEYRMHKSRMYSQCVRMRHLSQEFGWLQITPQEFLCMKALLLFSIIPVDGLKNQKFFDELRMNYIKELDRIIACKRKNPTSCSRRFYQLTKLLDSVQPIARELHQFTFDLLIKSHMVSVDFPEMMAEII
In words: U2OS-AR-LBD/9xGal4UAS luciferase reporter cell line. The conditions noted are these: for Log EC50: agonist mode, AR-LBD/9xGal4UAS, 20 h, log10 of molar EC50, mean ± SEM.

As usually defined, the EC50 is the concentration giving half of the maximal effect. Broadly, the IC50 is the point on the concentration scale where inhibition reaches its midpoint. Lower therefore signals inhibition by little substance. For the molecule `CCC(=O)[C@@]1(C)CC[C@H]2[C@@H]3CCC4=CC(=O)CCC4=C3CC[C@@]21C` [Promegestone (R5020), promegestone], the EC50 (on human MR (full-length) (read-out: Log EC50 (converted)); in experiment [1]; in experiment [2]) was > 10 µM each time. In addition, in experiment [2], 0.407 µM corresponded to half-maximal inhibition (IC50).
Regarding `C#C[C@]1(O)CC[C@H]2[C@@H]3CCC4=Cc5oncc5C[C@]4(C)[C@H]3CC[C@@]21C` [Danazol, danazol], the EC50 (at human MR (full-length) (read-out: Log EC50 (converted)); in experiment [1]) was > 10 µM in each case.
`O=c1c(-c2ccc(O)cc2)coc2cc(O)cc(O)c12` [Genistein, genistein]: the EC50 (on human MR (full-length); in experiment [2]) was > 10 µM each time.
For the molecule `CC[C@@H]1Cc2cc(O)ccc2C2=C1c1ccc(O)cc1C[C@H]2CC` (relative stereo) [R.R-THC, (R,R)-cis-diethyltetrahydro-2,8-chrysenediol], the “Log EC50” value at human MR (full-length) is > -5.40 M; in experiment [2] it was > -5.00 M. Further, the “Log IC50” value at human MR (full-length) (antagonist mode) was -5.45 ± 0.22 M; in experiment [2] it was > -5.500 M.
Regarding `C[C@]12CC[C@@H]3c4ccc(O)cc4C[C@@H](CCCCCCCCC[S+]([O-])CCCC(F)(F)C(F)(F)F)[C@H]3[C@@H]1CC[C@@H]2O` (stereo partly drawn) [ICI 182.780], the “Log EC50” value (on human MR (full-length); in experiment [2]) was > -5.00 M in each case. The “Log IC50” value (on human MR (full-length) (antagonist mode); in experiment [2]) was > -5.00 M in each case.
In the case of `C[C@]12C[C@H](O)[C@H]3[C@@H](CCC4=CC(=O)CC[C@@]43C)[C@@H]1CC[C@@H]2C(=O)CO` [Corticosterone, corticosterone], the EC50 is 8.13e-05 µM on human MR (full-length) (read-out: Log EC50 (converted)) and > 10 µM in experiment [1].
With `C[C@H]1C[C@H]2[C@@H]3CCC4=CC(=O)C=C[C@]4(C)[C@@]3(Cl)[C@@H](O)C[C@]2(C)[C@@]1(O)C(=O)CO` [Beclomethasone, beclomethasone], the “Log EC50” value is reported as -7.97 ± 0.12 M at human MR (full-length) and > -5.00 M in experiment [1] (agonist mode, ERα^G420C-LBD/9xGal4UAS, 20 h, log10 of molar EC50, mean ± SEM). Moreover, the “Log IC50” value on human MR (full-length) (antagonist mode) is on record as > -5.00 M; in experiment [1] (antagonist mode, ERα^G420C-LBD/9xGal4UAS, in the presence of 20 nM E2, log10 of molar IC50, mean ± SEM) it was > -5.00 M. Also, the “activity profile in words” value on human MR (full-length) (full-length MR format, antagonist mode) is listed as “no sign of antagonistic activity”.
`C[C@]12CCC(=O)C=C1CC[C@@H]1[C@@H]2[C@@H](O)C[C@]2(C=O)[C@@H](C(=O)CO)CC[C@@H]12` [Aldosterone, aldosterone]: the EC50 in experiment [1] and in experiment [2] was > 10 µM throughout.
Consider `CCCc1c(-c2ccc(O)cc2)nn(-c2ccc(O)cc2)c1-c1ccc(O)cc1` [PPT, propyl pyrazole triol], for which the EC50 at human MR (full-length) (read-out: Log EC50 (converted)) is > 10 µM; in experiment [1] it was 0.0115 µM; in experiment [2] it was > 10 µM.
As for `C[C@]12C=CC(=O)C=C1CC[C@H]1[C@@H]3C[C@@H](O)[C@](O)(C(=O)CO)[C@@]3(C)C[C@H](O)[C@@]12F` [Triamcinolone, triamcinolone], the EC50 was 0.186 µM at human MR (full-length) (read-out: Log EC50 (converted)) and > 10 µM in experiment [1].
